Measurements taken from US9931407B2, “Silicon based drug conjugates and methods of using same” (BlinkBio, Inc., priority 2015, dated 2018).

Assays:
KB cells = test: Cellular data: KB cell viability (Cell titer-glo luminescence); type: cell-based; conditions: for EC50: folate free RPMI, 2 h compound incubation, wash, additional 70 h; for % Kill (48 h): percent cell kill at 48 h
Procedure: KB cells in culture were seeded in white clear bottom 96-well tissue culture plate at a density of 5,000 cells per well in a folate free RPMI media with 10% FBS a day prior to compound addition. Cells were counted visually with a hemocytometer and diluted accordingly to obtain the desired density. Cells were allowed to incubate for 24 hours in a humidified CO2 atmosphere in an incubator at 37° C. The spent media was aspirated and replenished with 100 μL of fresh media containing a 3-fold serial dilution of compound with concentrations ranging from 0.3 to 2000 nM and with a final DMSO concentration of 0.1%. Blank wells without compound were also treated with media containing 0.1% DMSO. […] […] At the end of 70 h, the spent media was removed and cells were washed once with fresh media and then suspended 100 μL of PBS. 100 μL of constituted Cell titer-glo reagent was added to each well and luminescence was recorded with a VICTOR plate reader according to manufacturers' protocol.

[1] = Hydrolysis studies of silicon-linker constructs and conjugates (HEPES buffer, UPLC/MS)
physchem = conditions: buffer
[2] = tested on: Folate receptor alpha expressing KB cells; test: Imaging study demonstrating endocytosis and Si-O cleavage (confocal microscopy); type: cell-based; conditions: 50 nM
Procedure: Example 79 as shown above contains a folate receptor targeting ligand, a spacer moiety, a siloxane core and two different fluorescent dyes (BODIPY and rhodamine) positioned on either side of the siloxane core. Folate receptor alpha expressing KB cells were grown in folic acid free media. The cells were incubated for 30 minutes on ice with 50 nM of Example 79, washed with fresh culture medium and then incubated in media at 37° C. for the desired length of time. The fate of both dyes was simultaneously monitored using confocal microscopy using Zeiss LSM 780 laser scanning microscope.

CC[C@]1(O)C[C@H]2CN(CCc3c([nH]c4ccccc34)[C@@](C(=O)OC)(c3cc4c(cc3OC)N(C)[C@H]3[C@@](O)(C(=O)NCCC[Si](C)(C)O[Si](C)(C)CSc5ncc(COCCOCCOCCn6cc(COCC(COCc7cn(CCOCCOCCOCc8cnc(SC[Si](C)(C)O[Si](C)(C)CCCNC(=O)[C@@]9(O)[C@H](O)[C@]%10(CC)C=CCN%11CC[C@@]%12(c%13cc([C@@]%14(C(=O)OC)C[C@@H]%15CN(CCc%16c%14[nH]c%14ccccc%16%14)C[C@](O)(CC)C%15)c(OC)cc%13N(C)[C@@H]9%12)[C@@H]%11%10)nc8)nn7)(COCc7cn(CCOCCOCCOCc8cnc(SC[Si](C)(C)O[Si](C)(C)CCCNC(=O)[C@@]9(O)[C@H](O)[C@]%10(CC)C=CCN%11CC[C@@]%12(c%13cc([C@@]%14(C(=O)OC)C[C@@H]%15CN(CCc%16c%14[nH]c%14ccccc%16%14)C[C@](O)(CC)C%15)c(OC)cc%13N(C)[C@@H]9%12)[C@@H]%11%10)nc8)nn7)NC(=O)CCOCCOCCOCCOCCOCCOCCNC(=O)CC[C@H](NC(=O)c7ccc(NCc8cnc9nc(N)[nH]c(=O)c9n8)cc7)C(=O)O)nn6)cn5)[C@H](O)[C@]5(CC)C=CCN6CC[C@]43[C@@H]65)C2)C1 (stereo partly shown) [Example 82]
EC50 (KB cells): ~0.193 µM | % Kill (48 h) (KB cells): 80% | half-life ([1]; pH 5): 1 h | half-life ([1]; pH 7.4): > 24 h

CC(C)C(=O)NCCC[Si](C)(C)O[Si](C)(C)CSc1ncccn1 [Example 34, N-(3-(1,1,3,3-Tetramethyl-3-((pyrimidin-2-ylthio)methyl)disiloxanyl)propyl) isobutyramide]
half-life (physchem; pH 5): 0.0333 h | half-life (physchem; pH 7.4): > 2 h

CCN(CC)c1ccc2c(-c3ccc(S(=O)(=O)NCc4cnc(SC[Si](C)(C)O[Si](C)(C)CCCN5C(=O)CC(SC[C@H](NC(=O)[C@H](CNC(=O)CCC6=[N+]7C(=Cc8c(C)cc(C)n8[B-]7(F)F)C=C6)NC(=O)[C@H](CC(=O)O)NC(=O)CC[C@H](NC(=O)c6ccc(NCc7cnc8nc(N)[nH]c(=O)c8n7)cc6)C(=O)O)C(=O)O)C5=O)nc4)cc3S(=O)(=O)[O-])c3ccc(=[N+](CC)CC)cc-3oc2c1 (stereo partly shown) [Example 79]
half-life ([1]; pH 5): 1.67 h | half-life ([1]; pH 7.4): > 18 h | Cleavage of the siloxane core (color separation of the two fluorescent dyes) ([2]; 37° C., t=30 min): cleavage of the siloxane core was observed | Endocytosis of intact conjugate into the cell ([2]; 37° C., t=30 min): endocytosis of intact Example 79 into the cell was observed | Binding to the folate receptor on the cell surface (colocalization of dyes) ([2]; 30 minutes on ice, t=0): bound to the folate receptor on the cell surface

C[Si](C)(COc1ncccn1)O[Si](C)(C)COc1ncccn1 [Example 15, 1,1,3,3-Tetramethyl-1,3-bis((pyrimidin-2-yloxy)methyl)disiloxane]
half-life (physchem; pH 5): 0.417 h | half-life (physchem; pH 7.4): > 4 h

Cc1ccnc(SC[Si](C)(C)O[Si](C)(C)C)n1 [Example 27, 4-Methyl-2-(((1,1,3,3,3-pentamethyldisiloxanyl)methyl)thio)pyrimidine]
half-life (physchem; pH 5): 0.2 h | half-life (physchem; pH 7.4): > 2 h

C[Si](C)(C)O[Si](C)(C)CS(=O)(=O)c1ncccn1 [Example 10, 2-(((1,1,3,3,3-Pentamethyldisiloxanyl)methyl)sulfonyl)pyrimidine]
half-life (physchem; pH 5): 0.583 h | half-life (physchem; pH 7.4): 0.583 h

CC[C@]1(O)C[C@@H]2C[N@@](CCc3c([nH]c4ccccc34)[C@@](C(=O)OC)(c3cc4c(cc3OC)N(C)[C@H]3[C@@](O)(C(=O)NCCC[Si](C)(C)O[Si](C)(C)CSc5ncc(Cn6cc(COCCOCCOCCOCCOCCOCCNC(=O)CC[C@H](NC(=O)c7ccc(NCc8cnc9nc(N)[nH]c(=O)c9n8)cc7)C(=O)O)nn6)cn5)[C@H](O)[C@]5(CC)C=CCN6CC[C@]43[C@@H]65)C2)C1 [Example 80]
EC50 (KB cells): ~0.265 µM | % Kill (48 h) (KB cells): 84% | half-life ([1]; pH 5): 0.75 h | half-life ([1]; pH 7.4): 24 h

CC(=O)NCCC[Si](C)(C)O[Si](C)(C)CCCn1cc(-c2ccccc2)nn1 [Example 69, N-(3-(1,1,3,3-tetramethyl-3-(3-(4-phenyl-1H-1,2,3-triazol-1-yl)propyl)disiloxanyl)propyl)acetamide]
half-life (physchem; pH 5): 4 h | half-life (physchem; pH 7.4): > 6 h

Cc1cc(C)nc(SC[Si](C)(C)O[Si](C)(C)C)n1 [Example 9, 4,6-Dimethyl-2-(((1,1,3,3,3-pentamethyldisiloxanyl)methyl)thio)pyrimidine]
half-life (physchem; pH 5): 0.417 h | half-life (physchem; pH 7.4): 40 h

CC(=O)NCCC[Si](C)(C)O[Si](C)(C)CSc1ncc(Cn2cc(-c3ccccc3)nn2)cn1 [Example 62, N-(3-(1,1,3,3-tetramethyl-3-(((5-((4-phenyl-1H-1,2,3-triazol-1-yl)methyl)pyrimidin-2-yl)thio)methyl)disiloxanyl)propyl)acetamide]
half-life (physchem; pH 5): 0.333 h | half-life (physchem; pH 7.4): > 3 h

C[Si](C)(C)O[Si](C)(C)CSc1nccc(C(F)(F)F)n1 [Example 28, 2-(((1,1,3,3,3-pentamethyldisiloxanyl)methyl)thio)-4-(trifluoromethyl)pyrimidine]
half-life (physchem; pH 5): > 2 h

C[Si](C)(C)O[Si](C)(C)CSc1cnccn1 [Example 31, 2-(((1,1,3,3,3-pentamethyldisiloxanyl)methyl)thio)pyrazine]
half-life (physchem; pH 5): 0.5 h

CC(=O)NCCC[Si](C)(C)O[Si](C)(C)CSc1ncc(Cn2cc(-c3ccc(COCC(COCc4ccc(-c5cn(Cc6cnc(SC[Si](C)(C)O[Si](C)(C)CCCNC(C)=O)nc6)nn5)cc4)(COCc4ccc(-c5cn(Cc6cnc(SC[Si](C)(C)O[Si](C)(C)CCCNC(C)=O)nc6)nn5)cc4)NC(=O)OC(C)(C)C)cc3)nn2)cn1 [Example 73, tert-butyl(1,3-bis((4-(1-((2-(((3-(3-acetamidopropyl)-1,1,3,3-tetramethyldisiloxanyl)methyl)thio)pyrimidin-5-yl)methyl)-1H-1,2,3-triazol-4-yl)benzyl)oxy)-2-(((4-(1-((2-(((3-(3-acetamidopropyl)-1,1,3,3-tetramethyldisiloxanyl)methyl)thio)pyrimidin-5-yl)methyl)-1H-1,2,3-triazol-4-yl)benzyl)oxy)methyl)propan-2-yl)carbamate]
half-life (physchem; pH 5): 18 h | half-life (physchem; pH 7.4): > 18 h

CC[C@]1(O)C[C@H]2CN(CCc3c([nH]c4ccccc34)[C@@](C(=O)OC)(c3cc4c(cc3OC)N(C)[C@H]3[C@@](O)(C(=O)NCCC[Si](C)(C)O[Si](C)(C)CSc5ncc(Cn6cc(COCC(COCc7cn(Cc8cnc(SC[Si](C)(C)O[Si](C)(C)CCCNC(=O)[C@@]9(O)[C@H](O)[C@]%10(CC)C=CCN%11CC[C@@]%12(c%13cc([C@@]%14(C(=O)OC)C[C@@H]%15CN(CCc%16c%14[nH]c%14ccccc%16%14)C[C@](O)(CC)C%15)c(OC)cc%13N(C)[C@@H]9%12)[C@@H]%11%10)nc8)nn7)(COCc7cn(Cc8cnc(SC[Si](C)(C)O[Si](C)(C)CCCNC(=O)[C@@]9(O)[C@H](O)[C@]%10(CC)C=CCN%11CC[C@@]%12(c%13cc([C@@]%14(C(=O)OC)C[C@@H]%15CN(CCc%16c%14[nH]c%14ccccc%16%14)C[C@](O)(CC)C%15)c(OC)cc%13N(C)[C@@H]9%12)[C@@H]%11%10)nc8)nn7)NC(=O)CCOCCOCCOCCOCCOCCOCCNC(=O)CC[C@H](NC(=O)c7ccc(NCc8cnc9nc(N)[nH]c(=O)c9n8)cc7)C(=O)O)nn6)cn5)[C@H](O)[C@]5(CC)C=CCN6CC[C@]43[C@@H]65)C2)C1 (stereo partly shown) [Example 83]
half-life ([1]; pH 7.4): > 24 h

C[Si](C)(CCCC(=O)O)O[Si](C)(C)c1ccccc1 [Example 1, 4-(1,1,3,3-Tetramethyl-3-phenyldisiloxanyl)butanoic acid]
half-life (physchem; pH 5): 1.67 h | half-life (physchem; pH 7.4): > 24 h

C[Si](C)(C)O[Si](C)(C)CSc1ncccn1 [Example 8, 2-(((1,1,3,3,3-Pentamethyldisiloxanyl)methyl)thio)pyrimidine]
half-life (physchem; pH 5): 0.0833 h | half-life (physchem; pH 7.4): 24 h

CC(=O)NCCC[Si](C)(C)O[Si](C)(C)CSc1ncc(COCCOCCOCCn2cc(COCC(COCc3cn(CCOCCOCCOCc4cnc(SC[Si](C)(C)O[Si](C)(C)CCCNC(C)=O)nc4)nn3)(COCc3cn(CCOCCOCCOCc4cnc(SC[Si](C)(C)O[Si](C)(C)CCCNC(C)=O)nc4)nn3)NC(C)=O)nn2)cn1 [Example 63]
half-life (physchem; pH 5): 1 h | half-life (physchem; pH 7.4): > 18 h

CC[C@]1(O)C[C@@H]2CN(CCc3c([nH]c4ccccc34)[C@@](C(=O)OC)(c3cc4c(cc3OC)N(C)[C@H]3[C@@](O)(C(=O)NCCC[Si](C)(C)O[Si](C)(C)CSc5ncc(Cn6cc(C[C@H](NC(=O)[C@H](CC(=O)O)NC(=O)[C@H](CC(=O)O)NC(=O)[C@H](CCCNC(=N)N)NC(=O)[C@H](CC(=O)O)NC(=O)CC[C@H](NC(=O)c7ccc(NCc8cnc9nc(N)[nH]c(=O)c9n8)cc7)C(=O)O)C(=O)O)nn6)cn5)[C@H](O)[C@]5(CC)C=CCN6CC[C@]43[C@@H]65)C2)C1 [Example 81]
% Kill (48 h) (KB cells): 86% | half-life ([1]; pH 5): 0.583 h | half-life ([1]; pH 7.4): 24 h

CCOC(=O)CCC[Si](C)(C)O[Si](C)(C)CCCC(=O)O [Example 7, 4-(3-(4-ethoxy-4-oxobutyl)-1,1,3,3-tetramethyldisiloxanyl)butanoic acid]
half-life (physchem; pH 5): 0.333 h | half-life (physchem; pH 7.4): > 24 h
